solubility, EC50 and CC50 data for seven molecules are collected here from ChEMBL document CHEMBL4152286, “3'-O-Substituted 5-(perylen-3-ylethynyl)-2'-deoxyuridines as tick-borne encephalitis virus reproduction inhibitors” (Eur J Med Chem, 2018).

SMILES strings stand for the structures. In brackets after ≈: the same amount, converted by molar mass.

A short description of data set [1]: Solubility of compound in 15% DMSO by UV-Vis spectrophotometric method. In kind it is physicochemical.
Data set [2] in a line: Solubility of compound in 5% DMSO by UV-Vis spectrophotometric method. In kind it is physicochemical.
Data set [3] relates to Tick-borne encephalitis virus. Kind of data set: Antiviral activity against TBEV Absettarov infected in PEK cells assessed as plaque reduction preincubated for 1 hr followed by overlaying with 1.26% methylcellulose and measured after 6 days by gentian violet staining-based assay. In kind it is functional, organism-based.
Data set [4] in a line: Cytotoxicity against PEK cells after 7 days by microscopic method. Format: cell-based, Sus scrofa. The note with it: pig.
Data set [5] is described as follows: Cytotoxicity against PEK cells after 24 hrs by microscopic method. The note with it: pig. Format: cell-based, Sus scrofa.

The solubility is the concentration that dissolves in the medium under given conditions. Read a low solubility as a poorly soluble substance. In data set [1], `O=c1[nH]c(=O)n([C@H]2C[C@H](O)[C@@H](CO)O2)cc1C#Cc1ccc2c3cccc4cccc(c5cccc1c52)c43` registered a solubility of 7.8 µM (≈ 3.92 µg/mL).

In general, EC50 refers to the midpoint of the concentration-response curve. Usually CC50 stands for the concentration giving 50% cytotoxicity. Take `[N-]=[N+]=NCO[C@H]1C[C@H](n2cc(C#Cc3ccc4c5cccc6cccc(c7cccc3c74)c65)c(=O)[nH]c2=O)O[C@@H]1CO`: the solubility in data set [2] is 680 µM (≈ 379 µg/mL). The EC50 in data set [3] was determined as 0.0054 µM. In data set [4], this molecule registered a CC50 at 168 h of 35 µM. In data set [5], the CC50 at 24 h was more than 50 µM.

In the case of `O=c1[nH]c(=O)n([C@H]2C[C@H](OCn3cc(CCO)nn3)[C@@H](CO)O2)cc1C#Cc1ccc2c3cccc4cccc(c5cccc1c52)c43`, the concentration for a half-maximal effect (EC50) in data set [3] is 0.05 µM. In data set [4], the CC50 at 168 h is more than 50 µM. In data set [5], this molecule displayed a half-maximal cytotoxic concentration (CC50) at 24 h of more than 50 µM.

On to `O=c1[nH]c(=O)n([C@H]2C[C@H](OCn3cc(CCCCO)nn3)[C@@H](CO)O2)cc1C#Cc1ccc2c3cccc4cccc(c5cccc1c52)c43`, for which the 50% effective concentration (EC50) in data set [3] is 0.023 µM. This molecule also showed a half-maximal cytotoxic concentration (CC50) at 168 h in data set [4] of more than 50 µM. Moreover, the CC50 at 24 h in data set [5] was more than 50 µM.

In the case of `O=c1[nH]c(=O)n([C@H]2C[C@H](OCn3cc(CO)nn3)[C@@H](CO)O2)cc1C#Cc1ccc2c3cccc4cccc(c5cccc1c52)c43`, in data set [3], the concentration giving a half-maximal response (EC50) turned out to be 0.03 µM. Moreover, in data set [4], the 50% cytotoxic concentration (CC50) at 168 h is more than 50 µM. Also, the 50% cytotoxic concentration (CC50) at 24 h in data set [5] is more than 50 µM.

On to `O=c1[nH]c(=O)n([C@H]2C[C@H](OCn3cc(CCCO)nn3)[C@@H](CO)O2)cc1C#Cc1ccc2c3cccc4cccc(c5cccc1c52)c43`, for which the half-maximal effective concentration (EC50) in data set [3] amounted to 0.037 µM. In data set [4], this molecule displayed a CC50 at 168 h of more than 50 µM. The molecule also returned a half-maximal cytotoxic concentration (CC50) at 24 h in data set [5] of more than 50 µM.

On to `CSCO[C@H]1C[C@H](n2cc(C#Cc3ccc4c5cccc6cccc(c7cccc3c74)c65)c(=O)[nH]c2=O)O[C@@H]1CO`, for which the solubility in data set [2] is 150 µM (≈ 84.4 µg/mL). In addition, the EC50 in data set [3] was found to be 0.0077 µM. The CC50 at 168 h in data set [4] was more than 50 µM. The molecule further gave a half-maximal cytotoxic concentration (CC50) at 24 h in data set [5] of more than 50 µM.
